Measurements: publication PMC10004634 (PLOS ONE, 2023)

Columns and labels:
LCK = LCK (Homo sapiens, UniProt P06239); test: mobility shift assay (MSA)
BLK = BLK (Homo sapiens, UniProt P51451); test: Z'-Lyte kinase inhibition assay; format: biochemical; parameters: purchased Thermo Fisher Scientific (Invitrogen Z'-Lyte service); conditions: 60 min preincubation
Experimental: In all the assays, each test compound was preincubated with peptide/kinase mixture or kinase/antibody mixture for 60 min at room temperature before adding the ATP solution or AlexaFluor labeled Tracer to initiate the 60-min incubation of the reactants.

TMD8 cells [1] = test: Cell viability assay (CellTiter-Glo); format: cell-based; conditions: Homo sapiens, 72 h
Experimental: After incubation for 72 h at 37°C and 5% CO2/95% air, relative light units (RLU) were measured with the CellTiter-Glo Luminescent Cell Viability Assay (Promega, Madison, WI, USA). […] GraphPad Prism (version 5.01J or 5.04; GraphPad Software, Inc., San Diego, CA, USA) and its base settings were used for initial values and convergence conditions.

TMD8 cells [2] = test: Western blot of IRF4, BCL6, c-MYC protein expression; format: cell-based, human; conditions: 24 h, 1 μM
Experimental: After culturing, cells were harvested and lysed with cell lysis buffer (Cell Signaling Technology, Inc.) containing 1 mM AEBSF (Calbiochem, #101500). As a positive control of BTK autophosphorylation for western blot analysis, TMD8 cells were treated with hydrogen peroxide (H2O2; final concentration: 6 mM) for 10 min, harvested as a control sample, and then lysed with the cell lysis buffer.
Each mixture of cells and cell lysis buffer was incubated on ice for 5 min, then centrifuged at 13400 × g and 4°C for 10 min. Total lysates were loaded on 4%–12% SDS-PAGE (Bio-Rad) and transferred to a polyvinylidene difluoride (PVDF) membrane (Immobilon-P Transfer Membrane, Millipore Corporation). The blot was incubated in Tris-buffered saline with Tween 20 (TBS-T, Cell Signaling Technology, Inc.) containing 2 w/v% ECL Advance Blocking Agent (GE Healthcare Life Sciences, b) for 1 h at room temperature. The blocked PVDF membranes were immersed in TBS-T and washed three times with shaking at room temperature for 10 min. The membrane was incubated with primary antibody in TBS-T containing 2 w/v% ECL Advance Blocking Agent with gentle agitation overnight at 5°C in a cold storage room or for 1 h at room temperature. […] Lumino-image analyzer (LAS-1000 Plus system, Fuji Photo Film Co., Ltd.) and Image Reader LAS-1000 Lite version 1.3 (Fuji Photo Film Co., Ltd.) were used to visualize bands. […]

TEC = target: T1, TEC (Homo sapiens, UniProt P42680); test: KINOMEscan binding assay; parameters: purchased Eurofins DiscoverX (KINOMEscan scanMAX service)
T1 sequence (P42680 1-631): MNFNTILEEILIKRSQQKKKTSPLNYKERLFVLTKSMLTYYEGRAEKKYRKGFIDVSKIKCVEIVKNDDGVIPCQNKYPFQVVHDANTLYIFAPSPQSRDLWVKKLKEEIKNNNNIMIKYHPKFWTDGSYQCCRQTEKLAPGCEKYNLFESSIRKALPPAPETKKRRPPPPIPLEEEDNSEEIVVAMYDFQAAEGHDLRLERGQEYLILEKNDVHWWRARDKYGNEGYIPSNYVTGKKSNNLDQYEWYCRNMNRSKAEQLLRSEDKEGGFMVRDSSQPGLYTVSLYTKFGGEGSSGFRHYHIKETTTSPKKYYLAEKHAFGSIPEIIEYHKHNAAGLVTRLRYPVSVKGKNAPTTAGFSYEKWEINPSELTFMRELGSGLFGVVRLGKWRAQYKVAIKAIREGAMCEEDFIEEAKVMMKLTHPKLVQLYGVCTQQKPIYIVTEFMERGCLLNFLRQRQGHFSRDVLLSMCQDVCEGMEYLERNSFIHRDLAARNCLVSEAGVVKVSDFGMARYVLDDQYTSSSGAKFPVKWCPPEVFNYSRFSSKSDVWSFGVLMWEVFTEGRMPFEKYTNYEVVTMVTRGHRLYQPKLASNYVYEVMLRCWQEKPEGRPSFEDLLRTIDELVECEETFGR

RIPK2 = RIPK2 (Homo sapiens, UniProt O43353); test: KinAffinity cell-based binding assay using PBMC; parameters: in a cell-based assay using PBMC (Kd); host or cells: PBMC
RIPK2, sequence (O43353 whole entry): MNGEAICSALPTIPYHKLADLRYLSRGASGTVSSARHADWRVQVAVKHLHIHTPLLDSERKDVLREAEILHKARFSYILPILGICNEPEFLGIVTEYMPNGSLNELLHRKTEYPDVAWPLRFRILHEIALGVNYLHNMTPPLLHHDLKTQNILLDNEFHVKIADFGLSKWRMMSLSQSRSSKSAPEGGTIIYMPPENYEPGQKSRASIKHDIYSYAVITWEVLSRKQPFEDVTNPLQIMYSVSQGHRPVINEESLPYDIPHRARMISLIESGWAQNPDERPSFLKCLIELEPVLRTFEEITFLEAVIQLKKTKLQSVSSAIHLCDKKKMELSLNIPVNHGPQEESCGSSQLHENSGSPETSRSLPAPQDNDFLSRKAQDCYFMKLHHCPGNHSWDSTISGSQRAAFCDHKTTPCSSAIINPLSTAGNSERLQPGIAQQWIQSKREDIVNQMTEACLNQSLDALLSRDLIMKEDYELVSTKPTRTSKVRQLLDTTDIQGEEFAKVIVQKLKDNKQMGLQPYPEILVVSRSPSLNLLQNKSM

BLK, sequence (P51451 whole entry): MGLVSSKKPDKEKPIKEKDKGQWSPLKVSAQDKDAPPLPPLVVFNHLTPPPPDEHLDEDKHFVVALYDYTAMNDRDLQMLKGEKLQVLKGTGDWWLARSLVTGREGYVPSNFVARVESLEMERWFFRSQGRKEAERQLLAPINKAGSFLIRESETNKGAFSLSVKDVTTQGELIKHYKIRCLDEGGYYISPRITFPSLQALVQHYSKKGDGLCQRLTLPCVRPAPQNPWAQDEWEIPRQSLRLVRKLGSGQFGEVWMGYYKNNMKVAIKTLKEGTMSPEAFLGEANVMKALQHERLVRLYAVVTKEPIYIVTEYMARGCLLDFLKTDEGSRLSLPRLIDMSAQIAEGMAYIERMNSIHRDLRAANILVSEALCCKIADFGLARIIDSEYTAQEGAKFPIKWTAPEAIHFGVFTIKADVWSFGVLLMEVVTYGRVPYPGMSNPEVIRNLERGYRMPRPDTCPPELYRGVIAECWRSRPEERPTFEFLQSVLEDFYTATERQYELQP
LCK, sequence (P06239 whole entry): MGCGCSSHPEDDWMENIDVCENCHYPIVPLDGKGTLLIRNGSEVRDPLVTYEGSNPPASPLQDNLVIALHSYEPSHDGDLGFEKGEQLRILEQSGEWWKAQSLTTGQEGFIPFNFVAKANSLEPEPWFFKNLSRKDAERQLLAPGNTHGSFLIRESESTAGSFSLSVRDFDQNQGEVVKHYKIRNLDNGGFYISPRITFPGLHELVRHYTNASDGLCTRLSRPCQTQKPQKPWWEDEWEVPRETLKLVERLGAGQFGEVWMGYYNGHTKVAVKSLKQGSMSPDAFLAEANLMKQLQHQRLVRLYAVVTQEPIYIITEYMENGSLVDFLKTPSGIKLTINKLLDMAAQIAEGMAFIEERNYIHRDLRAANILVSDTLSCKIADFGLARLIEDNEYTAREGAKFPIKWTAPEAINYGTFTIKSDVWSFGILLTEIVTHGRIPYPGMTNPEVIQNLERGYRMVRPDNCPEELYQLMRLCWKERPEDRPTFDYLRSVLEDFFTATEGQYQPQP

Structure (SMILES): CC#CC(=O)N1CCC[C@H]1c1nc(-c2ccc(C(=O)Nc3ccccn3)cc2)c2c(N)nccn12 [Acalabrutinib]
- IC50 (LCK): 5.2 µM
- IC50 (BLK): 2.27 µM

Structure (SMILES): CC#CC(=O)N1CC[C@@H](n2c(=O)n(-c3ccc(Oc4ccccc4)cc3)c3c(N)ncnc32)C1 [Tirabrutinib]
- inhibition at 0.1 µM (TMD8 cells [1]; at 100 nM, read-out: maximum growth inhibition rate): 98.6%
- IC50 (TMD8 cells [1]; read-out: IC50 of growth inhibition): 0.00359 µM
- BCL6 protein expression (TMD8 cells [2]): not changed
- IRF4 protein expression (TMD8 cells [2]): downregulation
- MYC protein expression (TMD8 cells [2]): downregulation
- IC50 (LCK): 0.788 µM
- inhibition at 0.3 µM (TEC; 300 nM, read-out: inhibition of kinase binding (KINOMEscan)): 92.2%
- Kd (RIPK2): > 3 µM
- IC50 (BLK): 1.28 µM

Structure (SMILES): C=CC(=O)N1CCC([C@@H]2CCNc3c(C(N)=O)c(-c4ccc(Oc5ccccc5)cc4)nn32)CC1 [Zanubrutinib]
- Percent control (TEC; kinase TEC (Entrez TEC)): 20%
